In patent publication US20190388559A1, “ENCAPSULATION OF METAL OXIDE NANOMATERIALS FOR CONTROLLED RELEASE AND TARGETED DELIVERY” (Boise State University, priority 2018, published 2019):

Tested on: T47D breast cancer cells
Experiment: Alamar Blue viability of T47D cells with or without UV triggered release
Assay type: cell-based
Details: 48 hours, free nZnO 16.3 μg/mL, free PTX 40 nM
Method: Both cell lines were cultured in log phase using RPMI 1640 media supplemented with 10% fetal bovine serum (FBS), 1% penicillin/streptomycin, 2 mM L-glutamine, and for T47D cells, 0.2 Units/mL of bovine insulin per American Type Culture Collection (ATCC) recommendations.
For viability assessments, both Jurkat and T47D cells were cultured following ATCC recommendations noted above. For the Jurkat T cell line, the cells were first washed with PPH free RPMI 1640 and then seeded at a concentration of 2.5×10^5 cells/mL using the same media in a 96 well plate. For T47D cells, the cells were first seeded in the culture media at 1.0×10^5 cells/well in a 24 well plate the day prior to treatment to allow for cell attachment. The media was then gently aspirated and replaced with the PPH free RPMI 1640 media prior to NP treatment. […]
Once treated with NPs, the cells were then cultured for 48 hours at 37° C. and 5% CO2. […] After optimizing the UV irradiation protocol, required UV exposure was determined to be 3 minutes for Jurkat cells and 2 minutes for T47D cells to re-establish the toxicity of the nZnO while minimizing effects to the cellular viability. Cell viability was assessed using the Alamar Blue metabolic assay. […] The fluorescence intensity measurements were performed using a Biotek Synergy MX plate reader using an excitation/emission of 530/590 nm.

CC(=O)O[C@H]1C(=O)[C@@]2(C)[C@H]([C@H](OC(=O)c3ccccc3)[C@]3(O)C[C@H](OC(=O)[C@H](O)[C@@H](NC(=O)c4ccccc4)c4ccccc4)C(C)=C1C3(C)C)[C@]1(OC(C)=O)CO[C@@H]1C[C@@H]2O [PTX, Paclitaxel]
effect of free (non-encapsulated) controls on viability: somewhat similar effect as the non-triggered release Enc-nZnO/PTX group
